From the NIST ThermoML archive (doi:10.1016/j.jct.2015.05.002)
Numbers after ± are expanded uncertainties.

Test: mn = molality of the nth substance listed, in mol/kg
Conditions: 101.3 kPa, Liquid; for speed of sound: Frequency=3 MHz, Sing-around technique in a fixed-path interferometer; for mass density: Vibrating tube method

Q: With `O=C[O-].[NH3+]CCCO` [3-hydroxypropylammonium formate] + O as the compound, how does the speed of sound (293.15 K, m1 = 0.1) read?
A: 1489.6 ± 2.7 m/s

Q: And the speed of sound (293.15 K, m1 = 0.21)?
A: 1496.4 ± 2.7 m/s

Q: And the speed of sound (293.15 K, m1 = 0.3)?
A: 1502.6 ± 2.7 m/s

Q: And the speed of sound (293.15 K, m1 = 0.42)?
A: 1510.7 ± 2.7 m/s

Q: And the mass density (293.15 K, m1 = 0.1)?
A: 999.816 ± 0.65 kg/m3

Q: And the mass density (293.15 K, m1 = 0.21)?
A: 1001.61 ± 0.65 kg/m3

Q: What about the mass density (293.15 K, m1 = 0.3) of the same compound?
A: 1003.08 ± 0.65 kg/m3

Q: What about the mass density (293.15 K, m1 = 0.42) of the same compound?
A: 1005.09 ± 0.66 kg/m3

Q: What about the speed of sound (298.15 K, m1 = 0.21) of the same compound?
A: 1508.3 ± 2.7 m/s

Q: What about the speed of sound (298.15 K, m1 = 0.42) of the same compound?
A: 1520 ± 2.7 m/s

Q: What about the mass density (298.15 K, m1 = 0.21) of the same compound?
A: 1000.35 ± 0.65 kg/m3

Q: And the mass density (298.15 K, m1 = 0.42)?
A: 1003.64 ± 0.65 kg/m3

Q: And the speed of sound (303.15 K, m1 = 0.21)?
A: 1519.6 ± 2.7 m/s

Q: And the speed of sound (303.15 K, m1 = 0.42)?
A: 1530.5 ± 2.7 m/s

Q: What about the mass density (303.15 K, m1 = 0.21) of the same compound?
A: 998.914 ± 0.65 kg/m3

Q: What about the mass density (303.15 K, m1 = 0.42) of the same compound?
A: 1002.15 ± 0.65 kg/m3

Q: And the speed of sound (308.15 K, m1 = 0.21)?
A: 1529.4 ± 2.7 m/s

Q: What about the speed of sound (308.15 K, m1 = 0.42) of the same compound?
A: 1540.3 ± 2.7 m/s

Q: What about the mass density (308.15 K, m1 = 0.21) of the same compound?
A: 997.259 ± 0.65 kg/m3

Q: What about the mass density (308.15 K, m1 = 0.42) of the same compound?
A: 1000.45 ± 0.65 kg/m3

Q: What about the speed of sound (313.15 K, m1 = 0.21) of the same compound?
A: 1538 ± 2.7 m/s

Q: And the speed of sound (313.15 K, m1 = 0.42)?
A: 1547.9 ± 2.7 m/s

Q: What about the mass density (313.15 K, m1 = 0.21) of the same compound?
A: 995.402 ± 0.64 kg/m3

Q: And the mass density (313.15 K, m1 = 0.42)?
A: 998.562 ± 0.65 kg/m3

Q: And the speed of sound (318.15 K, m1 = 0.21)?
A: 1545 ± 2.7 m/s

Q: What about the speed of sound (318.15 K, m1 = 0.42) of the same compound?
A: 1554.3 ± 2.7 m/s

Q: What about the mass density (318.15 K, m1 = 0.21) of the same compound?
A: 993.291 ± 0.64 kg/m3

Q: What about the mass density (318.15 K, m1 = 0.42) of the same compound?
A: 996.504 ± 0.64 kg/m3
